In ChEMBL document CHEMBL1201862, “PubChem BioAssay data set” (2004):
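Method: 48-hour compound exposure of cells in 96-well plates, five concentrations, linear interpolation of endpoints. Abbreviation: GI50, concentration required for 50% inhibition of growth.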 Activity calls are given as the source filed them. Cut-off read from the data, not from the text of the source: active = GI50 up to about 1.1 µM and inactive = higher.

Columns and labels:
Experiment in all cases: NCI tumour cell line growth inhibition, 48 h
SK-OV-3 = system: SK-OV-3
MOLT-4 = system: MOLT-4
U-251 = system: U-251
SNB-75 = system: SNB-75
OVCAR-5 = system: OVCAR-5
HL-60 = system: HL-60
K562 = system: K562
SF-539 = system: SF-539
SR = system: SR
UACC-62 = system: UACC-62
SF-295 = system: SF-295
SW-620 = system: SW-620
SN12C = system: SN12C
SF-268 = system: SF-268
SK-MEL-2 = system: SK-MEL-2
786-0 = system: 786-0
EKVX = system: EKVX

| SMILES | GI50 (SK-OV-3) | GI50 (MOLT-4) | GI50 (U-251) | GI50 (SNB-75) | GI50 (OVCAR-5) | GI50 (HL-60) | GI50 (K562) | GI50 (SF-539) | GI50 (SR) | GI50 (UACC-62) | GI50 (SF-295) | GI50 (SW-620) | GI50 (SN12C) | GI50 (SF-268) | GI50 (SK-MEL-2) | GI50 (786-0) | GI50 (EKVX) |
| --- | --- | --- | --- | --- | --- | --- | --- | --- | --- | --- | --- | --- | --- | --- | --- | --- | --- |
| O=C(c1ccc(Cl)cc1)N(C(=S)N1CCN(c2ccccc2)CC1)C1CCCCC1 | > 100 µM (inactive) | 54.2 µM (inactive) | > 100 µM (inactive) | 85.3 µM (inactive) | > 100 µM (inactive) | 94.6 µM (inactive) | 58.2 µM (inactive) | > 100 µM (inactive) | 67.6 µM (inactive) | > 100 µM (inactive) | > 100 µM (inactive) | > 100 µM (inactive) | > 100 µM (inactive) | > 100 µM (inactive) | > 100 µM (inactive) | > 100 µM (inactive) | – |
| COc1ccc(NC(=O)C(=O)c2c(O)c3ccc(O)cc3oc2=O)c([N+](=O)[O-])c1 | > 100 µM (inactive) | > 100 µM (inactive) | – | > 100 µM (inactive) | > 100 µM (inactive) | > 100 µM (inactive) | > 100 µM (inactive) | > 100 µM (inactive) | – | > 100 µM (inactive) | > 100 µM (inactive) | > 100 µM (inactive) | – | > 100 µM (inactive) | > 100 µM (inactive) | > 100 µM (inactive) | > 100 µM (inactive) |
| O=C(C(=O)n1ncc(Cl)c(Cl)c1=O)n1ncc(Cl)c(Cl)c1=O | > 53.8 µM (inactive) | 14.8 µM (inactive) | 35.7 µM (inactive) | 40.8 µM (inactive) | > 100 µM (inactive) | 5.82 µM (inactive) | 20.3 µM (inactive) | 28.8 µM (inactive) | – | 15.1 µM (inactive) | 93.5 µM (inactive) | 19.4 µM (inactive) | 24.4 µM (inactive) | 42.4 µM (inactive) | 23.3 µM (inactive) | 19.5 µM (inactive) | 40.4 µM (inactive) |
| O=C(Nc1c(Cl)cc([N+](=O)[O-])cc1Cl)C(=O)C(C(=O)c1ccncc1)C1OC(=O)c2ccccc21 (stereo not drawn) | > 100 µM (inactive) | > 100 µM (inactive) | > 100 µM (inactive) | 35 µM (inactive) | > 100 µM (inactive) | > 100 µM (inactive) | > 100 µM (inactive) | – | > 100 µM (inactive) | > 100 µM (inactive) | > 100 µM (inactive) | > 100 µM (inactive) | > 100 µM (inactive) | > 100 µM (inactive) | – | > 100 µM (inactive) | > 100 µM (inactive) |
| COC(=O)c1ccccc1N(C(=O)c1ccccc1)c1ccccc1C | 24.3 µM (inactive) | 22.4 µM (inactive) | 48.2 µM (inactive) | > 100 µM (inactive) | > 100 µM (inactive) | 19.5 µM (inactive) | 41.1 µM (inactive) | – | 28.2 µM (inactive) | 93.8 µM (inactive) | 44.2 µM (inactive) | 59.8 µM (inactive) | > 100 µM (inactive) | > 100 µM (inactive) | 45 µM (inactive) | 50 µM (inactive) | 53.2 µM (inactive) |
| O=[N+]([O-])c1ccc(Cl)c(C2CC(c3cccc4ccccc34)=Nc3ccccc3S2)c1 (stereo not drawn) | > 84.7 µM (inactive) | 6.75 µM (inactive) | 20.5 µM (inactive) | 0.195 µM (active) | 42.1 µM (inactive) | 5.21 µM (inactive) | 6.31 µM (inactive) | 20.6 µM (inactive) | 3.58 µM (inactive) | 15.4 µM (inactive) | 23.9 µM (inactive) | 18.8 µM (inactive) | 21 µM (inactive) | 18.7 µM (inactive) | 21.7 µM (inactive) | 12.4 µM (inactive) | 70.8 µM (inactive) |
| COC(=O)CC(C(C(=O)OC)C(=O)OC)N1C(=O)OCC1c1ccccc1 (stereo not drawn) | > 100 µM (inactive) | > 100 µM (inactive) | > 100 µM (inactive) | > 100 µM (inactive) | > 100 µM (inactive) | > 100 µM (inactive) | > 100 µM (inactive) | > 100 µM (inactive) | – | > 100 µM (inactive) | > 100 µM (inactive) | 43.5 µM (inactive) | > 100 µM (inactive) | > 100 µM (inactive) | > 100 µM (inactive) | > 100 µM (inactive) | > 100 µM (inactive) |
| COc1ccccc1/C=C1\CCC(CCN(C)C)(C2=CCCC2)C1=O (stereo not drawn) | – | 20.7 µM (inactive) | 16.6 µM (inactive) | 17.4 µM (inactive) | 19.1 µM (inactive) | 21.6 µM (inactive) | 11.1 µM (inactive) | 15.1 µM (inactive) | 31.6 µM (inactive) | 11.2 µM (inactive) | 17.3 µM (inactive) | 17.5 µM (inactive) | 22.1 µM (inactive) | 19.4 µM (inactive) | 19.5 µM (inactive) | 14.4 µM (inactive) | 1.81 µM (inactive) |
| COc1ccc(C/C(=N/O)C(=O)NCCc2cc(Br)c(OCCCN(C)C)c(Br)c2)cc1Br [APLYSAMINE 2] | – | – | 17.7 µM (inactive) | 18.9 µM (inactive) | 22.3 µM (inactive) | 12.3 µM (inactive) | – | 13.6 µM (inactive) | – | – | 18.8 µM (inactive) | 16.6 µM (inactive) | 18.5 µM (inactive) | 18.5 µM (inactive) | 20.1 µM (inactive) | 20 µM (inactive) | 19.6 µM (inactive) |
